Test results from patent US6127337A, “Bivalent thrombin inhibitors” (National Research Council of Canada, priority 1993, dated 2000).
Like-named read-outs stand apart in the source and are kept apart here.

Key:
human thrombin = biological target: T1, human thrombin (Homo sapiens, UniProt P00734); assay: Inhibition of amidolytic activity of human thrombin (fluorogenic, Tos-Gly-Pro-Arg-AMC), Ki; type: biochemical
T1 construct: Human α-thrombin (3,000 NIH units/mg); purchased Sigma
Description: Materials. The chromogenic and fluorogenic substrates Tosyl-Gly-Pro-Arg-pNAand Tos-Gly-Pro-Arg-AMC were purchased from Boehringer Manheim and Sigma, respectively. […] Initial velocities were recorded at several inhibitor concentrations and kinetic parameters were determined by fitting the data to a general equation describing enzyme inhibition (Segel, 1975). The data were analyzed using the non-linear regression program RNLIN in the IMSL library (IMSL, 1987) on a microVAX™ 3500 computer. […] Fluorogenic assays were conducted using the same conditions and instrument as above operating in the fluorescence mode in the ratio (λex =383 nm, λem =455 nm) Fluorescence intensities were calibrated with 7-amino-4-methyl coumarin solution of known concentration
Determination of Thrombin Inhibitory Dissociation Constants KI
The steady-state velocity was then measured for a few minutes. The compounds of this invention were also pre-incubated with thrombin for 20 min at room temperature before adding the substrate. […] The kinetic data (the steady-state velocity at various concentrations of the substrate and the inhibitors) of the competitive inhibition was analyzed using the methods described by Segel (1975). A non-linear regression program, RNLIN in the IMSL library (IMSL, 1987), LMDER in MINPACK library (More et al., 1980) or Microsoft™ Excell™, was used to estimate the kinetic parameters (Km Vmax and Ki). The biological data are reported on tables I-V.

[1] = test system: carotid injury-induced thrombosis; assay: FeCl3 induced arterial injury model (carotid injury-induced thrombosis); type: in vivo; conditions: rat; for Dose to double occlusion time: control occlusion time 19 ± 1 min; for Dose to achieve patency at 60 min.: patency defined by no drop in vessel temperature
Description: […]: Rat, male, Sprague-Dawley. Weight: 375-450 g The FeCl3 induced arterial injury model assays were conducted according to Kurz, K. D., Main, […]., Thrombosis research 60; 269-280, 1990 and Schumacher, W. A. et al. J. pharmacology and experimental therapeutics 267; 1237-1242, 1993. Male, Sprague-Dawley (375-450 g) are anesthetized with Urethane (1500 mg/kg IP). Animals are laid on a heating pad which is maintained at 37° C. The carotid artery is approached through a midline cervical incision. Carefully blunt dissection is used to expose and isolate the vessel from the carotid sheath. Using forceps, the artery is lifted to provide clearance to insert two small polyethylene tubing (PE-205) underneath it. The temperature probe (Physitemp MT23/3 )TM is placed between the PE-205 and the artery. The vessel temperature is monitored for 60 minutes after application of FeCl3. Vessel temperature changes are recorded on a thermister (Cole-Palmer Model 08533-41). Injury is induced by application of a small disc (3 mm dia.) of WhatmanTM No.1 filter paper previously dipped in a 35% solution of FeCl3 on the carotid artery above the temperature probe. The site of the experiment is covered with in Aluminum foil in order to protect the FeCl3 from degradation by light. […] Before the start of the experiment, one blood sample is drawn (1 ml) in a tube of 0.105M buffered citrate solution (from the eye's sinus) and the animal is exsanguinated at the end. All the samples are kept on ice and centrifuged as soon as possible at 2000 Rpm for 10 min., 4° C. The plasma is analyzed in duplicate for activated partial thromboplastin time on a haemostasis analyzer (STAGO ST4TM). From a group of four animals, two arteries are stored at -80C for further analysis.

[2] = Table IV, results from assay no. 1, read-out: Ki
[3] = Table IV, results from assay no. 2, read-out: Ki
[4] = Table III, various linker segments, human thrombin 3.0×10^-11 M, read-out: Ki
[5] = Table II, various active site inhibitor segments, human thrombin 3.0×10^-11 M, read-out: Ki
[6] = Table IV, no assay number given, read-out: Ki
[7] = FIG. 1 Dixon plot, human α-thrombin 0.033 NIH unit/mL, pH 7.8, 25° C., read-out: Ki

Compound: dansyl-Arg-(D-pipecolic acid)-(12-aminododecanoic acid)-4-aminobutyric acid)-Asp-Tyr-Glu-Pro-Ile-Pro-Glu-Glu-Ala-(L-β-cyclohexylalanine)-(D- Glu)-OH [Peptide P535]
- Ki (human thrombin; [2]): 0.00123 ± 0.00026 nM
- Ki (human thrombin; [3]): 0.002 ± 0.0004 nM

Compound: dansyl-Arg-(D-Pipecolic acid)-(4-aminobutyric acid)-glycyl)-Asp-Phe-Glu-Glu-Ile-Pro-Glu-Glu-Tyr-Leu-Gln-OH [Peptide P514]
- Ki (human thrombin; [4]): 6800 ± 1640 nM

Compound: 4-tert-Butyl-benzene sulfonyl-Arg-(D-Pipecolic acid)-(12-aminododecanoic acid)-4-aminobutyric acid)-Asp-Phe-Glu-Glu-Ile-Pro-Glu-Glu-Tyr-Leu-Gln-OH [Peptide P552]
- Dose to double occlusion time [1]: 0.5 mg/kg i.v. bolus
- Dose to achieve patency at 60 min. [1]: ≥ 2 mg/kg i.v. bolus

Compound: dansyl-Arg-(L-pipecolic acid)-(12-aminododecanoic acid)-4-aminobutyric acid)-Asp-Phe-Glu-Glu-Ile-Pro-Glu-Glu-Tyr-Leu-Gln-OH [Peptide P447]
- Ki (human thrombin; [5]): 12.4 ± 1.8 nM

Compound: dansyl-Arg-(D)1-amino cyclohexane carboxylic acid-(12-aminododecanoic acid)-4-aminobutyric acid)-Asp-Phe-Glu-Glu-Ile-Pro-Glu-Glu-Tyr-Leu-Gln-OH [Peptide P473]
- Ki (human thrombin; [5]): 36.3 ± 10.3 nM

Compound: α-naphthyl sulfonyl-arginyl D-pipecolic acid-(12-aminododecanoic acid)-4-aminobutyric acid)-Asp-Tyr-Glu-Pro-Ile-Pro-Glu-Glu-Ala-(L-β-cyclohexylalanine)-(D- Glu)-OH [Peptide P581]
- Ki (human thrombin; [6]): 0.0145 ± 0.0009 nM
- Dose to double occlusion time [1]: 0.5 mg/kg i.v. bolus
- Dose to achieve patency at 60 min. [1]: 1 mg/kg i.v. bolus

Compound: (D-Phe)-Arg-(D-Pipecolic acid)(12-aminododecanoic acid)-4-aminobutyric acid)-Asp-Phe-Glu-Glu-Ile-Pro-Glu-Glu-Tyr-Leu-Gln-OH [Peptide P483]
- Ki (human thrombin; [5]): 54.9 ± 6.6 nM

Compound: (D-β-cyclohexylalanine)-Arg-(D-Pipecolic acid)-(12-aminododecanoic acid)-4-aminobutyric acid)-Asp-Phe-Glu-Glu-Ile-Pro-Glu-Glu-Tyr-Leu-Gln-OH [Peptide P481]
- Ki (human thrombin; [5]): 9.51 ± 0.16 nM

Compound: dansyl-Arg-(D-pipecolic acid)-(12-aminododecanoic acid)-4-aminobutyric acid)-Asp-Phe-Glu-Glu-Ile-Pro-Glu-Glu-Tyr-Leu-Gln-OH [Peptide P448]
- Ki (human thrombin; [7]): 0.017 ± 0.0042 nM
- Dose to double occlusion time [1]: 1.0 mg/kg i.v. bolus
- Dose to achieve patency at 60 min. [1]: > 2 mg/kg i.v. bolus

Compound: dansyl-(D-Arg)-(D-Pipecolic acid)-(12-aminododecanoic acid)-4-aminobutyric acid)-Asp-Phe-Glu-Glu-Ile-Pro-Glu-Glu-Tyr-Leu-Gln-OH [Peptide P492]
- Ki (human thrombin; [5]): 1.02 ± 0.38 nM

Compound: dansyl-Arg-(L-Pip)-(4-aminobutyric acid-glycyl)-Asp-Phe-Glu-Glu-Ile-Pro-Glu-Glu-Tyr-Leu-Gln-OH [Peptide P409]
- Ki (human thrombin; Table III, various linker segments, human thrombin 3.0×10^-11 M): no inhibition

Compound: β-naphthyl sulfonyl-Arg-(D-Pipecolic acid)-(12-aminododecanoic acid)-4-aminobutyric acid)-Asp-Phe-Glu-Glu-Ile-Pro-Glu-Glu-Tyr-Leu-Gln-OH [Peptide P532]
- Ki (human thrombin; [5]): 0.024 ± 0.004 nM
- Dose to double occlusion time [1]: 0.5-1 mg/kg i.v. bolus
- Dose to achieve patency at 60 min. [1]: 1-2 mg/kg i.v. bolus

Compound: α-naphthyl sulfonyl-Arg-(D-Pipecolic acid)-(12-aminododecanoic acid)-4-aminobutyric acid)-Asp-Phe-Glu-Glu-Ile-Pro-Glu-Glu-Tyr-Leu-Gln-OH [Peptide P531]
- Ki (human thrombin; [5]): 0.032 ± 0.001 nM
- Dose to double occlusion time [1]: 0.5 mg/kg i.v. bolus
- Dose to achieve patency at 60 min. [1]: > 2 mg/kg i.v. bolus

Compound: benzyl sulfonyl-Arg-(D-Pipecolic acid)-(12-aminododecanoic acid)-4-aminobutyric acid)-Asp-Phe-Glu-Glu-Ile-Pro-Glu-Glu-Tyr-Leu-Gln-OH [Peptide P556]
- Ki (human thrombin; [5]): 0.137 ± 0.026 nM
- Ki (human thrombin; read-out: Ki value): < 1 nM

Compound: β-naphthyl sulfonyl-arginyl D-pipecolic acid-(12-aminododecanoic acid)-4-aminobutyric acid)-Asp-Tyr-Glu-Pro-Ile-Pro-Glu-Glu-Ala-(L-β-cyclohexylalanine)-(D- Glu)-OH [Peptide P551]
- Ki (human thrombin; [2]): 0.0033 ± 0.00016 nM
- Ki (human thrombin; [3]): 0.0042 ± 0.0002 nM
- Dose to double occlusion time [1]: 0.5-1 mg/kg i.v. bolus
- Dose to achieve patency at 60 min. [1]: 1-2 mg/kg i.v. bolus

Compound: dansyl-Arg-(D-β-cyclohexylalanine)-(12-aminododecanoic acid)-4-aminobutyric acid)-Asp-Phe-Glu-Glu-Ile-Pro-Glu-Glu-Tyr-Leu-Gln-OH [Peptide P472]
- Ki (human thrombin; [5]): 17.1 ± 3.1 nM

Compound: dansyl-Arg-(D-Pipecolic acid)-(7-aminoheptanoic acid)-glycyl)-Asp-Phe-Glu-Glu-Ile-Pro-Glu-Glu-Tyr-Leu-Gln-OH (RXXGDFEEIPEEYLQ; dansyl, D-pipecolic acid, aminoheptanoic acid-glycyl linker) [Peptide P524]
- Ki (human thrombin; [4]): 1480 ± 170 nM

Compound: dansyl-Nle-(D-Pipecolic acid)-(12-aminododecanoic acid)-4-aminobutyric acid)-Asp-Phe-Glu-Glu-Ile-Pro-Glu-Glu-Tyr-Leu-Gln-OH [Peptide P493]
- Ki (human thrombin; [5]): 5.2 ± 1.31 nM

Compound: CC[C@H](C)[C@H](NC(=O)[C@H](CCC(=O)O)NC(=O)[C@H](CCC(=O)O)NC(=O)[C@H](Cc1ccccc1)NC(=O)[C@H](CC(=O)O)NC(=O)CCCCNC(=O)CNC(=O)CNC(=O)CCNC(=O)[C@H]1CCCCN1C(=O)[C@H](CCCNC(=N)N)NS(=O)(=O)c1cccc2c(N(C)C)cccc12)C(=O)N1CCC[C@H]1C(=O)N[C@@H](CCC(=O)O)C(=O)N[C@@H](CCC(=O)O)C(=O)N[C@@H](Cc1ccc(O)cc1)C(=O)N[C@@H](CC(C)C)C(=O)N[C@@H](CCC(N)=O)C(=O)O [Peptide P498]
- Ki (human thrombin; [7]): 0.131 ± 0.022 nM
- Ki (human thrombin; read-out: Ki value): < 1 nM

Compound: dansyl-Phe-(D-Pipecolic acid)-(12-aminododecanoic acid)-4-aminobutyric acid)-Asp-Phe-Glu-Glu-Ile-Pro-Glu-Glu-Tyr-Leu-Gln-OH [Peptide P476]
- Ki (human thrombin; [5]): 2.62 ± 0.2 nM

Compound: dansyl-Cha-(D-Pipecolic acid)-(12-aminododecanoic acid)-4-aminobutyric acid)-Asp-Phe-Glu-Glu-Ile-Pro-Glu-Glu-Tyr-Leu-Gln-OH [Peptide P477]
- Ki (human thrombin; [5]): 5.85 ± 0.098 nM

Compound: dansyl-Arg-(D-Pipecolic acid)-(8-aminocaproicacid)-4-aminobutyric acid)-Asp-Phe-Glu-Glu-Ile-Pro-Glu-Glu-Tyr-Leu-Gln-OH [Peptide P528]
- Ki (human thrombin; [4]): 0.521 ± 0.086 nM
- Ki (human thrombin; read-out: Ki value): < 1 nM

Compound: dansyl-Arg-1,2,3,4-tetrahydroisoquinoline-3-carboxylic acid-(12-aminododecanoic acid)-4-aminobutyric acid)-Asp-Phe-Glu-Glu-Ile-Pro-Glu-Glu-Tyr-Leu-Gln-OH (RXXXDFEEIPEEYLQ; dansyl-Arg-Tic-aminododecanoic-aminobutyric N-terminal extension) [Peptide P471]
- Ki (human thrombin; [5]): 0.285 ± 0.04 nM

Compound: fmoc-Arg-(D-Pipecolic acid)(12-aminododecanoic acid)-4-aminobutyric acid)-Asp-Phe-Glu-Glu-Ile-Pro-Glu-Glu-Tyr-Leu-Gln-OH [Peptide P484]
- Ki (human thrombin; [5]): 14.8 ± 1.2 nM

Compound: 4-tert-butylbenzenesulfonyl-Arg-(D-pipecolic acid)-(12-aminododecanoic acid)-4-aminobutyric acid)-Asp-Tyr-Glu-Pro-Ile-Pro-Glu-Glu-Ala-(L-β-cyclohexylalanine)-(D- Glu)-OH [Peptide P553]
- Ki (human thrombin; [6]): 0.003 ± 0.0004 nM
- Dose to double occlusion time [1]: 0.25 mg/kg i.v. bolus
- Dose to achieve patency at 60 min. [1]: 0.5-1 mg/kg i.v. bolus
